Test [1] deals with Polyadenylate-binding protein 1 (Homo sapiens, UniProt P11940). The experiment in a line: PABP inhibition in translation initiation, SAR follow-up (AID 435018). The format is functional.
For test [2], the target named is T1, Heat shock factor protein 1 (Mus musculus, UniProt P38532).
T1 sequence (P38532 whole entry): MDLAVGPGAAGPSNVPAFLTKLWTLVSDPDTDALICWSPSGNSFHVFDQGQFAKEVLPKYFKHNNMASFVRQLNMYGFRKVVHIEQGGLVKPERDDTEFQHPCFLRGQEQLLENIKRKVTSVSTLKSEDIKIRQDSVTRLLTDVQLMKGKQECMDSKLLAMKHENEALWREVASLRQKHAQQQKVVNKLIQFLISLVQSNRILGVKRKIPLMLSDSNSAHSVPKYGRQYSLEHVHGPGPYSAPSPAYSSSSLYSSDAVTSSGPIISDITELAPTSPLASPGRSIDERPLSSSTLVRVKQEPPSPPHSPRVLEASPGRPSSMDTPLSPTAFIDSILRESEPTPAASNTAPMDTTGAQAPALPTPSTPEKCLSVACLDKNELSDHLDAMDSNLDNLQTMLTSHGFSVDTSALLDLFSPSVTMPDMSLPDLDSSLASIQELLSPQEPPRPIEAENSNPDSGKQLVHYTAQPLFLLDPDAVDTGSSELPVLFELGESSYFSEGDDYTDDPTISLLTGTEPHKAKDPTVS
Description: inhibition of MG132-induced HSE-luciferase signal, confirmation, cell-based, NIH3T3, luminescence, dose retest (AID 2382).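 Also: NIH3T3 fibroblasts with HSF1-driven luciferase reporter stressed by proteasome inhibitor MG132; luminescence from HSF1-driven luciferase expression after 8 hours of MG132 stress.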 Format: functional.

The target in test [3] is Eukaryotic translation initiation factor 4H (Homo sapiens, UniProt Q15056). Description: eIF4H inhibition in translation initiation, SAR follow-up (AID 435011). Format: functional.
In test [4] the target is T2, Mannose-6-phosphate isomerase (Homo sapiens, UniProt P34949).
T2 sequence (P34949 whole entry): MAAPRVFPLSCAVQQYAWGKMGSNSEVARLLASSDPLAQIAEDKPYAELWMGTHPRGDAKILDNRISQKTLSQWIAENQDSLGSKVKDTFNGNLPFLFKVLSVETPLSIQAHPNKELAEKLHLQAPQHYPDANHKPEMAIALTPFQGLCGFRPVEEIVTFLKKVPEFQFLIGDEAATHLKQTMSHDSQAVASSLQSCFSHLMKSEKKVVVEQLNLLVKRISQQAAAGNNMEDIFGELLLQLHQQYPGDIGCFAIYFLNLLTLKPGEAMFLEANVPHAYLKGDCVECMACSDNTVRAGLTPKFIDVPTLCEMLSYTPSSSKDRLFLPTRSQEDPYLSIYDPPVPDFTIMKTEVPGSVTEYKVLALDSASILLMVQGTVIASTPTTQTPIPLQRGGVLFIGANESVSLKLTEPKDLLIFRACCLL
Description: inhibitors of human PMI, primary screen, biochemical, fluorescence intensity, coupled assay (AID 1209).

For a further test, the target named is Phosphomannomutase 2 (Homo sapiens, UniProt O15305). The experiment in a line: Counter screen SAR assay for PMM2 inhibitors via a fluorescence intensity assay. [Related pubchem assays (depositor defined):AID1545, AID1574]. Background: A counterscreen serves to expose hits that act by an unwanted route or on another target.
Test [5] addresses T2, Mannose-6-phosphate isomerase. The experiment in a line: PMI enzyme inhibitors, confirmation, biochemical, fluorescence intensity (AID 1535).
Test [6] concerns the target T3, Low molecular weight phosphotyrosine protein phosphatase (Homo sapiens, UniProt P24666).
T3 sequence (P24666 whole entry): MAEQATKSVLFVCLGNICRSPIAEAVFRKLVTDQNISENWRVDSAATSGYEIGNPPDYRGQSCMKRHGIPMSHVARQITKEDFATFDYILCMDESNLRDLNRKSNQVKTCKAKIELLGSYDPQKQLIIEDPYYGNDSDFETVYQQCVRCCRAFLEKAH
The format is functional. Particulars: read-out: IC50_Mean.

For test [7], the target named is T4, Dual specificity protein phosphatase 3 (Homo sapiens, UniProt P51452). Description: VHR1 phosphatase inhibitors, primary screen, biochemical, absorbance, uHTS (AID 1654).
For test [8], the target named is T4, Dual specificity protein phosphatase 3. The experiment in a line: VHR phosphatase inhibition, dose response, selectivity assay for STEP inhibitor project, biochemical (AID 602374). The format is functional. The conditions noted are these: read-out: IC50_Mean.
In test [9] the target is Envelope glycoprotein gp160 (Human immunodeficiency virus 1, UniProt Q6QLK5). The experiment in a line: inhibitors of HIV fusion peptide binding, primary screen, biochemical, uHTS, fluorescence dequenching (AID 1986).
Test [10] concerns the target T5, Tyrosine-protein phosphatase non-receptor type 5 (Homo sapiens, UniProt P54829).
T5 sequence (P54829 whole entry): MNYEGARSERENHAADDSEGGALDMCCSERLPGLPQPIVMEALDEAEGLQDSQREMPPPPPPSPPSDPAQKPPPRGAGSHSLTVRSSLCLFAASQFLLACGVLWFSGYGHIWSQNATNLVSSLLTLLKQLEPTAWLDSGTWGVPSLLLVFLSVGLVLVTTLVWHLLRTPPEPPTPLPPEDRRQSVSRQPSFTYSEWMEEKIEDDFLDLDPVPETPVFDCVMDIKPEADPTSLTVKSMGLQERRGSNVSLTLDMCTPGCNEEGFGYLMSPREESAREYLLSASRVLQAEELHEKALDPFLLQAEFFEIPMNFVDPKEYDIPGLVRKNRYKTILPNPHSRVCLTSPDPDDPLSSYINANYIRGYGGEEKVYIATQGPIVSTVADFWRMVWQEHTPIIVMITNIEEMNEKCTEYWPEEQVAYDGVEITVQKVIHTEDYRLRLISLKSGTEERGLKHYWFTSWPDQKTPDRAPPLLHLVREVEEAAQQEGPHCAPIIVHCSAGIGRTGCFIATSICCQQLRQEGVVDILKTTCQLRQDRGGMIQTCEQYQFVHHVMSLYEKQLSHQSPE
The experiment in a line: STEP phosphatase inhibitors, confirmation, biochemical, fluorescence intensity, uHTS hits (AID 602372). The conditions noted are these: read-out: IC50_Mean. Format: functional.

The target of test [11] is T6, Tyrosine-protein phosphatase non-receptor type 22 (Homo sapiens, UniProt Q9Y2R2).
T6 sequence (Q9Y2R2 whole entry): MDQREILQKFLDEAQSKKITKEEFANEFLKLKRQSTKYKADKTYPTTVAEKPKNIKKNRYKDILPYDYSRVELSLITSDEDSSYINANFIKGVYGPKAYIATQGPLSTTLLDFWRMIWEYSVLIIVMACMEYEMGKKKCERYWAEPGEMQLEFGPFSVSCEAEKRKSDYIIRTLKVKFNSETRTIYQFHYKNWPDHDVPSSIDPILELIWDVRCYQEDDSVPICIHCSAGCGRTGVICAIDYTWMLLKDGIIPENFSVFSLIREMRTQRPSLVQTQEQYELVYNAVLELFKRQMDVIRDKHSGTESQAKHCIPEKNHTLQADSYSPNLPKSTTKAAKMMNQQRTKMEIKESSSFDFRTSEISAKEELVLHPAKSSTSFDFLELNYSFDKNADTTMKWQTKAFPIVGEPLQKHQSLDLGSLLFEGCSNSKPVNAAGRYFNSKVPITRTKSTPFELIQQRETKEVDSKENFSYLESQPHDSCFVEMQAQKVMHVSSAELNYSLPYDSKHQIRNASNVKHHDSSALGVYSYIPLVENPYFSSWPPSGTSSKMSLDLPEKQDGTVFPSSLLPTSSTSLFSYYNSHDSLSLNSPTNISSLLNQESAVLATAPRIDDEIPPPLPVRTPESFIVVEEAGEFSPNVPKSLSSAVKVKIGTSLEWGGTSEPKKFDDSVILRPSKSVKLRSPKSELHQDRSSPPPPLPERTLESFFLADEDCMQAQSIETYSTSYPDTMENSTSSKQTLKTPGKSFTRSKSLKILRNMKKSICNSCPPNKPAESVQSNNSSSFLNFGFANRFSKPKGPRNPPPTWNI
Description: PTPN22 phosphatase inhibition, dose response, selectivity assay for STEP inhibitor project, biochemical (AID 624241). Format: functional.

Test [12] deals with T4, Dual specificity protein phosphatase 3. The experiment in a line: VHR1 phosphatase inhibitors, biochemical (AID 1878).
The target in test [13] is T7, Carboxy-terminal domain RNA polymerase II polypeptide A small phosphatase 1 (Homo sapiens, UniProt Q9GZU7).
T7 sequence (Q9GZU7 whole entry): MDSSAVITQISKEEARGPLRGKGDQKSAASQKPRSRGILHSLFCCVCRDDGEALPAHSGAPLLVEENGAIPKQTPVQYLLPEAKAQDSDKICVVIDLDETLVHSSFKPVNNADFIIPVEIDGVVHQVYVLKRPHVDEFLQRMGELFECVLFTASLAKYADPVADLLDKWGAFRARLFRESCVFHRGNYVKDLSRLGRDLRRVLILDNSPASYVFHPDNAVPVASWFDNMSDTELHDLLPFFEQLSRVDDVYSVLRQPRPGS
Description: inhibitors of CTDSP1, concentration-response testing, biochemical assay, absorbance-based, actives from ultra-high-throughput screening (AID 540297). Format: functional.

Test [14] has as its target T6, Tyrosine-protein phosphatase non-receptor type 22. The experiment in a line: LYP phosphatase inhibition for selectivity, dose response, selectivity assay for LMPTP inhibitor project, biochemical, fluorescence, LYP catalytic domain (AID 652006). Format: functional. Particulars: read-out: IC50_Mean.
The nature of test [15]: HEp-2 cell cytotoxicity, dose response, cytotoxicity control for RSV inhibitor project, HTS (AID 2410). Format: functional. The conditions noted are these: human respiratory syncytial virus.
Test [16] has as its target T3, Low molecular weight phosphotyrosine protein phosphatase. Format: functional. The conditions noted are these: read-out: IC50_Mean. The source holds these as a separate data set.
Test [17] addresses T8, Tyrosine-protein phosphatase non-receptor type 11 (Homo sapiens, UniProt Q06124).
T8 sequence (Q06124 whole entry): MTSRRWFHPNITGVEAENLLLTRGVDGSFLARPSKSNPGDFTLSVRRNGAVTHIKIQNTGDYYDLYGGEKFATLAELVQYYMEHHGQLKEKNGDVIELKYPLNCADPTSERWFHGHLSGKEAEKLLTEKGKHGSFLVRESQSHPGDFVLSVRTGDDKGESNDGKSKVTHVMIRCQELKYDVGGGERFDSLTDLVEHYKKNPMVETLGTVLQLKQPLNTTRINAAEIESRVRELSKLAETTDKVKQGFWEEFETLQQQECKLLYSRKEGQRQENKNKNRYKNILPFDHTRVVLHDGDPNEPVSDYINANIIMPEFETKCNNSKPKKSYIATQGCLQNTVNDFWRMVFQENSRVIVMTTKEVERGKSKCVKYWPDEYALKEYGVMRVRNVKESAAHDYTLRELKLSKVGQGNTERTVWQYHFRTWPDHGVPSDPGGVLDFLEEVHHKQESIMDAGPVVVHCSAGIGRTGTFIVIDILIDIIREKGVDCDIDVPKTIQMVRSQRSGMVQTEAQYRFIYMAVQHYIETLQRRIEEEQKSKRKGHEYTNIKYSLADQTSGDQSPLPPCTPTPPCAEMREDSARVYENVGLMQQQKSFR
Description: SHP2 phosphatase inhibition, dose response, selectivity assay for STEP inhibitor project, biochemical (AID 602367). Format: functional. Particulars: read-out: IC50_Mean.

Test [18] deals with T9, Dual specificity protein phosphatase 6 (Rattus norvegicus, UniProt Q64346).
T9 sequence (Q64346 whole entry): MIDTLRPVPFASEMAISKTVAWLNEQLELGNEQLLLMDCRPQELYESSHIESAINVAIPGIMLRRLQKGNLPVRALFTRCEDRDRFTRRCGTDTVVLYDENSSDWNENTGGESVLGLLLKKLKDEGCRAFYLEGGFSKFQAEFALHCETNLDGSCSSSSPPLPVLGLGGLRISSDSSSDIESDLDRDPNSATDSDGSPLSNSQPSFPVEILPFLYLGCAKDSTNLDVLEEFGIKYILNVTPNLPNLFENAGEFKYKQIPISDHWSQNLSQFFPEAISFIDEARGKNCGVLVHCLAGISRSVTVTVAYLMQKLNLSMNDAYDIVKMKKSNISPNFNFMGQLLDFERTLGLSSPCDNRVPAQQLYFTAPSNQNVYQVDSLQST
The experiment in a line: MKP-3 phosphatase inhibitors, primary screen, biochemical, rat enzyme, in vitro (AID 425).

Results on three compounds are retold here after ChEMBL document CHEMBL1201862, “PubChem BioAssay data set” (2004).

Active and inactive are the calls of the source.

T4 sequence (P51452 whole entry): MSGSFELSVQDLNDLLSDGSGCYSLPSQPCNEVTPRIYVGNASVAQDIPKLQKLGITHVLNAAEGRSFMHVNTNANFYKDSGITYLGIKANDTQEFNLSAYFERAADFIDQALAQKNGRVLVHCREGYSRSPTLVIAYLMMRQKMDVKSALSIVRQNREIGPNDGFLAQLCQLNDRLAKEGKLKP
Chain of Polyadenylate-binding protein 1 (P11940 whole entry): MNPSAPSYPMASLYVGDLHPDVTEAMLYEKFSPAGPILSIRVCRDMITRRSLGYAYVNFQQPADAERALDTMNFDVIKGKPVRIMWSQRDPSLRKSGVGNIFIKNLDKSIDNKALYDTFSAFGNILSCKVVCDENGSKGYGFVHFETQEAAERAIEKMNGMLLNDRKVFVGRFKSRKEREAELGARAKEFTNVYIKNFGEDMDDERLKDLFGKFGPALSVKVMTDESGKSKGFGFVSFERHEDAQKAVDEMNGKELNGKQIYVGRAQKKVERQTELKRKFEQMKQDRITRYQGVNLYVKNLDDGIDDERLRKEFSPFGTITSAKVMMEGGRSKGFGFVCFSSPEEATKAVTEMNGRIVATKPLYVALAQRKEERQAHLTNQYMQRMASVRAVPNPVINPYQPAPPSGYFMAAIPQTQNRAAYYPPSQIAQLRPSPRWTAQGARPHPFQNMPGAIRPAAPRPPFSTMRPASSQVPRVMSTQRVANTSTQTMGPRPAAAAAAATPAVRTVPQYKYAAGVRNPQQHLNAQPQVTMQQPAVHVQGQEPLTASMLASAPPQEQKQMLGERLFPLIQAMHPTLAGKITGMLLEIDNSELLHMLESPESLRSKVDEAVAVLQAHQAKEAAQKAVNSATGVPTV
Chain of Envelope glycoprotein gp160 (Q6QLK5 whole entry, the tested form may be a part): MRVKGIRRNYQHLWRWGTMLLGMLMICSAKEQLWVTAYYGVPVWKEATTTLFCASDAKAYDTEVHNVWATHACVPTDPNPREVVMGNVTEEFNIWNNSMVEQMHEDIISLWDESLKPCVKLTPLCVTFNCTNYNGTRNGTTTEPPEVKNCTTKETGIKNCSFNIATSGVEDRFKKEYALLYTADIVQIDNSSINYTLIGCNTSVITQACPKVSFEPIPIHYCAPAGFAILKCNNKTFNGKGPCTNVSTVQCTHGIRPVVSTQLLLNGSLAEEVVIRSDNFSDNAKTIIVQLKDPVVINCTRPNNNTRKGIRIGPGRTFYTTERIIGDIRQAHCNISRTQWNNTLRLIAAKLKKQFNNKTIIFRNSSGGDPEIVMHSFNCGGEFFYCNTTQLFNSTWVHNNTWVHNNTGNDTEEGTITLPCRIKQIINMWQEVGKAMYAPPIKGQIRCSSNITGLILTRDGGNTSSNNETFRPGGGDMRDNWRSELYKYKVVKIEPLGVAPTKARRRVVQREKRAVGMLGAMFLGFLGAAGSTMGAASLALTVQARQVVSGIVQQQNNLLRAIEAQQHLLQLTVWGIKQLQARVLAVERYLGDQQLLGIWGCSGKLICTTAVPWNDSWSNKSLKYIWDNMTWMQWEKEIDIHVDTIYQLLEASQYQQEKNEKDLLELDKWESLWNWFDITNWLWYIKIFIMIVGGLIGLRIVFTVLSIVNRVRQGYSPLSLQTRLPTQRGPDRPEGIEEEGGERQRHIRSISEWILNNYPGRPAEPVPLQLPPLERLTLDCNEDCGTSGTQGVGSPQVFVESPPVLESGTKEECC
Chain of Phosphomannomutase 2 (O15305 whole entry): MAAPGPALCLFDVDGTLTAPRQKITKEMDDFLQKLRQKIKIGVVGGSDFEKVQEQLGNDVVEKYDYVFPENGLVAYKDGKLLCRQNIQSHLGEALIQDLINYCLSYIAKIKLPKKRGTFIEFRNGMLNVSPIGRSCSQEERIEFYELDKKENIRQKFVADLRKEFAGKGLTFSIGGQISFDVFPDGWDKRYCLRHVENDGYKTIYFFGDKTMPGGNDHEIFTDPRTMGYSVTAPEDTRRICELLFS

By EC50 is commonly meant the midpoint of the concentration-response curve. Read a high EC50 as a need for much substance. Take `COc1ccc(CCNC(=O)CSc2ccc(-c3ccco3)nn2)cc1`: the IC50 in test [1] was > 100 µM (inactive); in test [3], 70.3 µM (active). Besides, the concentration for a half-maximal effect (EC50) in [2] was > 195 µM (not active).

As to `CCc1ccc(NC2Nc3cc(C)nn3S2)cc1` (stereo not given), the IC50 in test [4] is 8.43 µM (active); on Phosphomannomutase 2 it was > 100 µM (inactive); in [5], > 50 µM (inactive).

One may read the CC50 as the concentration at which the toxic effect on the cells reaches its halfway point. Consider `CCOc1cc(/C=N/NC2=NC(=O)C(CC(=O)O)S2)ccc1OCc1ccc(Cl)cc1Cl` (stereo not given), for which the IC50 was 34.6 µM (active) in “cells”; 8.68 µM (active) in [6]; 8.44 µM (active) in test [7]; 2.42 µM (active) in [8]; 13.6 µM (active) in [9]; 4.09 µM (active) in [10]. Also, the IC50 in test [11] was 7.26 µM (active); in test [12], 5.27 µM (active); in [13], 2.32 µM (active); in test [14] it was 22.9 µM (inactive); in test [16], 12.1 µM (active); in test [17], 2.2 µM (active). Moreover, the IC50 in test [18] is 25.6 µM (active). For the same compound, the CC50 in test [15] is 20.8 µM (active).
